Data: ChEMBL document CHEMBL4811222, “Antitumor Activity of Asperphenin B by Induction of Apoptosis and Regulation of Glyceraldehyde-3-phosphate Dehydrogenase in Human Colorectal Cancer Cells” (J Nat Prod, 2021)
The source made the active and inactive calls. The calls are words filed in the database; no cut-off is given here.

Columns and labels:
RKO [1] = test: Antitumor activity against human RKO cells implanted in BALB/c nude mouse assessed as suppression of Ki67 expression level in tumor lysates at 4 to 8 mg/kg, ip administered three times per week for 21 days by Western blotting analysis; type: functional, organism-based; details: Neoplasm, dose 4-8 mg/kg, time 21.0 day
RKO [2] = test: Antiproliferative activity against human RKO cells assessed as inhibition of cell growth incubated for 72 hrs by SRB assay; type: functional, cell-based
RKO [3] = test: Antitumor activity against human RKO cells implanted in BALB/c nude mouse assessed as inhibition of tumor growth at 4 mg/kg, ip administered three times per week for 21 days and measured every 3 to 4 days by electronic caliper method; type: functional; details: time 21.0 day
HCT-116 = test: Antiproliferative activity against human HCT-116 cells assessed as inhibition of cell growth incubated for 72 hrs by SRB assay; type: functional, cell-based; details: HCT-116, 72 h
CCD-841CoN = test: Antiproliferative activity against human CCD-841CoN cells assessed as inhibition of cell growth incubated for 72 hrs by SRB assay; type: cell-based
CCD-18Co = test: Antiproliferative activity against human CCD-18Co cells assessed as inhibition of cell growth incubated for 72 hrs by SRB assay; type: cell-based
RKO [4] = test: Antitumor activity against human RKO cells implanted in ip dosed BALB/c nude mouse assessed as suppression of GAPDH expression in tumor lysates administered three times per week for 21 days by Western blotting analysis; type: functional, organism-based; details: Neoplasm, time 21.0 day
RKO [5] = test: Antitumor activity against human RKO cells implanted in BALB/c nude mouse assessed as inhibition of tumor growth at 8 mg/kg, ip administered three times per week for 21 days and measured every 3 to 4 days by electronic caliper method; type: functional; details: time 21.0 day
RKO [6] = test: Suppression of GAPDH protein expression in human RKO cells at 2.5 to 10 uM after 24 hrs by Western blotting analysis; type: functional, cell-based; details: dose 2.5-10 µM
SW480 = test: Antiproliferative activity against human SW480 cells assessed as inhibition of cell growth incubated for 72 hrs by SRB assay; type: functional, cell-based; details: SW480, 72 h
LS174T = test: Antiproliferative activity against human LS174T cells assessed as inhibition of cell growth incubated for 72 hrs by SRB assay; type: functional, cell-based

SMILES	Activity (RKO [1])	IC50 (RKO [2]) [µM]	TGI (RKO [3])	IC50 (HCT-116) [µM]	IC50 (CCD-841CoN) [µM]	IC50 (CCD-18Co) [µM]	Activity (RKO [4])	TGI (RKO [5])	Activity (RKO [6])	IC50 (SW480) [µM]	IC50 (LS174T) [µM]
CCCCCCCCC[C@@H](O)CC(=O)N[C@@H](CC(N)=O)C(=O)N[C@@H](CCC(N)=O)C(=O)N[C@@H](CC(C)C)C1=C(c2c(O)cccc2O)c2c(O)cc(C)cc2C1=O	inactive	> 50	inactive	> 50	> 50	> 50	inactive	inactive	inactive	> 50	> 50
COc1cc([C@@H]2c3cc4c(cc3[C@@H](O[C@@H]3O[C@@H]5CO[C@@H](C)O[C@H]5[C@H](O)[C@H]3O)[C@H]3COC(=O)[C@H]23)OCO4)cc(OC)c1O [ETOPOSIDE]	–	1.96	–	0.66	8.71	18.4	–	–	–	1.11	0.48
